T1: MHPH6 (Microbacterium maritypicum, UniProt D6R8X8)
T1 construct: expressed in transfected cells; host or cells: E. coli BLR transformed with pSHP11H (pTTQ18 derivative), IPTG-induced
T1 sequence (D6R8X8 with tags, fused parts or gaps): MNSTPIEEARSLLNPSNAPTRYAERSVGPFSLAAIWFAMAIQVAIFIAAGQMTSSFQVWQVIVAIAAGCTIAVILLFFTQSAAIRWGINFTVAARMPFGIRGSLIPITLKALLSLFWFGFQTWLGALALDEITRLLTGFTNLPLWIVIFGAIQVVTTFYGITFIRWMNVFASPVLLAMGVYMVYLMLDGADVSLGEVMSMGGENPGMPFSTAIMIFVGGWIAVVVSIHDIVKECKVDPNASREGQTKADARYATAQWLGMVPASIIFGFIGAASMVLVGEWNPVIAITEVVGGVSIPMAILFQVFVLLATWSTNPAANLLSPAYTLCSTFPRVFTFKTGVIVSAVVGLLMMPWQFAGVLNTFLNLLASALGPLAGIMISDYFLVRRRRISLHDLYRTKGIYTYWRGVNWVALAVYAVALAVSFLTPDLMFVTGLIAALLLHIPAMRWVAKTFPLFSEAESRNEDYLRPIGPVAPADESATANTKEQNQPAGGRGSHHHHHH

B1: MHPH6: MHP hydantoin transporter protein containing the RGSHis6-Tag at the C-terminal (SEQ ID No. 3/4) (protein)
chain: MNSTPIEEARSLLNPSNAPTRYAERSVGPFSLAAIWFAMAIQVAIFIAAGQMTSSFQVWQVIVAIAAGCTIAVILLFFTQSAAIRWGINFTVAARMPFGIRGSLIPITLKALLSLFWFGFQTWLGALALDEITRLLTGFTNLPLWIVIFGAIQVVTTFYGITFIRWMNVFASPVLLAMGVYMVYLMLDGADVSLGEVMSMGGENPGMPFSTAIMIFVGGWIAVVVSIHDIVKECKVDPNASREGQTKADARYATAQWLGMVPASIIFGFIGAASMVLVGEWNPVIAITEVVGGVSIPMAILFQVFVLLATWSTNPAANLLSPAYTLCSTFPRVFTFKTGVIVSAVVGLLMMPWQFAGVLNTFLNLLASALGPLAGIMISDYFLVRRRRISLHDLYRTKGIYTYWRGVNWVALAVYAVALAVSFLTPDLMFVTGLIAALLLHIPAMRWVAKTFPLFSEAESRNEDYLRPIGPVAPADESATANTKEQNQPAGGRGSHHHHHH
modifications: C-terminal RGSHis6 tag; RGSH6

How the values were obtained:
MHPH6 [1] = target: T1, MHPH6; test: Substrate screening: competitive inhibition of 3H-L-BH uptake by E. coli BLR/pSHP11H; type: cell-based, Microbacterium liquefaciens AJ3912; settings: for competitive inhibitory activity against L-BH uptake (in words): 250 μM cold candidate; for competitive inhibitory activity against L-BH uptake (in words) / uptake activity of 3H-L-BH (relative activity, no compound added = 100%): uptake after 3 minutes; for uptake activity of 3H-L-BH (relative activity, no compound added = 100%): 250 μM cold compound; for relative affinity for MHPH6 (affinity of L-BH = 1): curve-fitted assuming simple competitive inhibition, variety of concentrations
Procedure: 25 μM of ^3H-L-BH was employed as the RI-labeled substrate in the above-described reaction using intact cells, and a reaction liquid was prepared by adding 250 μM of a candidate substrate (cold). The uptake amount of ^3H-L-BH after 3 minutes from the addition thereof was compared with the amount without the candidate substrate, to calculate the competitive inhibitory activity of each candidate substrate against L-BH, for evaluating the potentiality of each candidate substance as the substrate for MHP.
Affinity of a variety of compounds to MHPH6 was measured based on the competitive inhibitory activity thereof against L-BH uptake by E. coli BLR/pSHP11H, to search for substrates for MHPH6 (FIG. 8). […] When the four compounds showing strong inhibitive activity were added, the uptake activities of ^3H-L-BH (the relative activity with respect to when not adding any compound as 100%) were 7% (L-BH, theoretical value 9%), 47% (D-BH), 3% (L-IMH) and 24% (D- IMH).
The competitive inhibition experiments were carried out, as for substrate screening, with a variety of substrate concentrations. As a result, the affinity of D- and L-BH and D- and L-IMH for MHPH6 was different from one another, and the intensity of the affinity was in the order of L-IMH (solid triangle), L-BH (solid circle), D-IMH (open triangle) and D-BH (open circle) from the strongest. Assuming that ^3H-L-BH and the added cold compound were under simple competitive inhibition, the experimental results were curve-fitted. As a result, the relative affinity for each compound was calculated to be 5.32 (L-IMH), 1.05 (L-BH, experimental value), 0.96 (D-IMH), and 0.20 (D-BH), with respect to the affinity of L-BH and MHPH6 being 1.

MHPH6 [2] = target: T1, MHPH6; test: Uptake assay using intact cells of E. coli BLR/pSHP11H (RI-labelled substrate); type: cell-based; settings: for initial uptake rate / uptake amount 5 minutes after the addition of the substrate: induced E. coli BLR/pSHP11H, 25 μM substrate; for initial uptake rate: data at 15 seconds after substrate addition; for uptake amount 5 minutes after the addition of the substrate: pH 6.6, 25° C., per dry cell weight
From the text: The activity of the hydantoin transporter can be measured by an uptake assay using intact cells. The uptake assay using intact cells may be carried out in accordance with the method of West, and Henderson (I. C. West (1970) Lactose transport coupled to proton movements in Escherichia coli, Biochem. Biophys. Res. Commun. 41: 655-661; P. J. F. Henderson and A. J. S. Macpherson (1986), Assay, genetics, proteins, and reconstitution of proton-linked galactose, arabinose, and xylose transport systems of Escherichia coli, Methods Enzymol. 125: 387-429).
Specifically, the uptake reaction may be carried out by adding an RI-labelled substrate (^3H—BH (benzyl hydantoin), ^3H—IMH (indolylmethyl hydantoin)) to a suspension of the cells that express the hydantoin transporter. After initiating the reaction, sampling may be conducted at time intervals. Immediately after sampling, each aliquot may be collected by a filter of 0.45 μm pore size (preincubated in a washing liquid of 150 mM KCl, 5 mM MES (pH 6.6)) and washed thoroughly by the rinsing liquid. Thereafter, by measuring radioactivity remaining on the filter with a liquid scintillation counter, the substrate uptaken into the cells is quantified, and the hydantoin-transporter activity can be determined.
The methods of West (I. C. West (1970), Lactose transport coupled to proton movements in Escherichia coli. Biochem. Biophys. Res. Commun. 41: 655-661.) and Henderson (P. J. F. Henderson and A. J. S. Macpherson (1986), Assay, genetics, proteins, and reconstitution of proton-linked galactose, arabinose, and xylose transport systems of Escherichia coli, Methods Enzymol. 125: 387-429.) were employed.
The collected cells were washed three times with 150 mM KCl, 5 mM MES (2-[N-Morpholino]ethanesulphonic acid) (pH 6.6) and were then used in the assay. The basic reaction conditions included uptake initiation by adding glycerol to a final concentration of 20 mM to a cell suspension having an absorbance at about A680 of approximately 2 to 4, followed by aeration at 25° C. for 3 minutes, and then addition of an RI-labelled substrate (relative RI activity: ^3H—BH 107 Bq/nmol, ^3H—IMH 241 Bq/nmol) to a final concentration of 25 μM. After the onset of the reaction (aeration was continued), sampling was done over time. Immediately after the sampling, each aliquot was passed through a filter with a pore size of 0.45 μm (pre-incubated in a washing solution of 150 mM KCl and 5 mM MES (pH 6.6)) which was then washed sufficiently with a washing solution. The radiation remaining on the filter was measured by a liquid scintillation counter. The uptake activity was expressed in terms of the dry cell weight that was calculated by taking the absorbance A680=1 as the dry cell concentration of 0.68 mg/ml (Ashworth and Kornberg, Biological Science, 165(999):179-188 (1966)). Furthermore, the initial uptake rate was calculated based on the data obtained at 15 seconds after the addition of substrate, and expressed in terms of the uptake amount per minute.
In the measurement of the inhibitory activity of the inhibitor, the inhibitor was added at the time of onset of aeration. That is, it was pre-incubated with the cells for 3 minutes prior to the substrate addition. The inhibitor used was 2,4-dinitrophenol (DNP), and the final concentration during the reaction was 20 mM.
For varying the pH of the reaction liquid, 10 mM potassium acetate (pH 4.0), 5 mM MES (pH 4.9, 6.1, 6.6, 7.1, 7.9), 10 mM Tris-HCl (pH 8.0) and 10 mM glycin-NaOH (pH 10.0) were used when appropriate.

[3] = CD spectroscopy heat stability of purified MHPH6; type: physicochemical
Procedure: The buffer solution suspending the purified MHPH6 was replaced by 10 mM sodium phosphate (pH 7.6) with 0.05% (w/v) DDM, using an ultrafiltration apparatus (Centricon C50, Millipore). In this buffer solution, the protein concentration was adjusted to 50 μg/ml, and the CD spectroscopy was carried out at 10° C. (JASCO J-715 Spectropolarimeter). The measurement was performed at a wavelength ranging from 190 to 260 nm, and the average value of twenty measurements was taken. Furthermore, the change in the secondary structure of MHPH6 (heat stability) was observed by measuring the change of the CD unit value at a wavelength of 222 nm as the temperature of the sample was varied from 10° C.→90° C.→10° C. (the temperature change was made 10° C. at a time, and the length of time at each temperature was approximately 10 minutes).

[4] = CD at 222 nm, 10 mM sodium phosphate pH 7.6, 0.05% DDM

Molecule	competitive inhibitory activity against L-BH uptake (in words) (MHPH6 [1]; 25 μM 3H-L-BH)	uptake activity of 3H-L-BH (relative activity, no compound added = 100%) (MHPH6 [1]; 25 μM 3H-L-BH) [%]	relative affinity for MHPH6 (affinity of L-BH = 1) (MHPH6 [1])	other results
CC(C)CC1NC(=O)NC1=O (racemic) [5-DL-isobutyl hydantoin]	Weaker inhibitory activity	–	–	–
CC(C)C1NC(=O)NC1=O (racemic) [5-DL-isopropyl hydantoin]	Weaker inhibitory activity	–	–	–
CC1NC(=O)NC1=O (racemic) [5-DL-methyl hydantoin]	Weaker inhibitory activity	–	–	–
O=C1NC(=O)C(Cc2ccc(O)cc2)N1 (racemic) [5-DL-p-hydroxybenzyl hydantoin]	Weaker inhibitory activity	–	–	–
CC(C)C[C@@H]1NC(=O)NC1=O [5-L-isobutyl hydantoin]	Weaker inhibitory activity	–	–	–
CC(C)[C@@H]1NC(=O)NC1=O [5-L-isopropyl hydantoin]	Weaker inhibitory activity	–	–	–
O=C1NC(=O)[C@@H](Cc2ccccc2)N1 [D-BH]	strong activity of competitive inhibition	47	0.20	–
O=C1NC(=O)[C@@H](Cc2c[nH]c3ccccc23)N1 [D-IMH]	strong activity of competitive inhibition	24	0.96	–
O=[N+]([O-])c1ccc(O)c([N+](=O)[O-])c1 [DNP, 2,4-dinitrophenol, reference compound]	–	–	–	effect on L-IMH uptake, induced sample (MHPH6 [2]; DNP 20 mM, pre-incubated 3 minutes, induced sample): decreased the amount of L-IMH uptake; effect on L-IMH uptake, uninduced sample (MHPH6 [2]; DNP 20 mM, pre-incubated 3 minutes, uninduced sample): substantially no effect
O=C1NC(=O)C(Cc2ccccc2)N1 [L-BH, 5-L-benzyl hydantoin]	strong activity of competitive inhibition	7	1.05	uptake activity of 3H-L-BH, theoretical value (MHPH6 [1]; 250 μM cold L-BH, 25 μM 3H-L-BH): 9%; initial uptake rate (MHPH6 [2]): 0.64 nmol/mg/min; uptake amount 5 minutes after the addition of the substrate (MHPH6 [2]): 0.27 nmol/mg
O=C1NC(=O)[C@H](Cc2c[nH]c3ccccc23)N1 [L-IMH, 5-L-indolylmethyl hydantoin]	strong activity of competitive inhibition	3	5.32	affinity relative to that of L-BH (estimated) (MHPH6 [1]; L-IMH versus L-BH): approximately 5 times; initial uptake rate (MHPH6 [2]): 2.5 nmol/mg/min; uptake amount 5 minutes after the addition of the substrate (MHPH6 [2]): 0.91 nmol/mg; initial uptake rate as compared with the initial rate at pH 6.6 (MHPH6 [2]; pH 4.0): approximately 10%; initial uptake rate as compared with the initial rate at pH 6.6 (MHPH6 [2]; pH 10.0): approximately 10%; pH at which initial uptake rate is maximal (MHPH6 [2]; pH varied between 4.0 and 10.0, induced and uninduced samples): 6.6; initial uptake rate, L-IMH relative to L-BH (MHPH6 [2]; ratio L-IMH / L-BH): 3.9 times; uptake amount 5 minutes after addition of substrate, L-IMH relative to L-BH (MHPH6 [2]; ratio L-IMH / L-BH): 3.4 times
NC(=O)NC1NC(=O)NC1=O (centres unmarked) [allantoin, reference compound]	did not result in any inhibition	–	–	–
B1	–	–	–	temperature at which higher structure began to be destroyed [3, 4]: ≥ 30 °C; temperature at which higher structure was almost completely destroyed [3, 4]: 70 °C; reversibility of thermal denaturation ([3]; temperature 10→90→10° C.): irreversible

— patent publication US7851610B2, “Transporter protein” (Ajinomoto Co., Ltd., priority 2003, dated 2010)
